According to US12655106B2 (Eikonizo Therapeutics, Inc., priority 2021, dated 2026):
pIC50: −log10 of the molar value.

Tests used:
Full length Human HDAC6 = target: T1, Full length Human HDAC6 (Homo sapiens, UniProt Q9UBN7); experiment: Caliper endpoint assay for HDAC enzymatic activity (HDAC6); format: biochemical; details: for pIC50: in vitro enzymatic, Caliper endpoint assay, 30 min pre-incubation, 1 μM substrate peptide; for Selectivity (6 v 8): ratio of HDAC8 IC50/HDAC6 IC50
T1 construct: Full length Human HDAC6; FLAG (C); host or cells: baculovirus expression system
T1 sequence (Q9UBN7 1-1215): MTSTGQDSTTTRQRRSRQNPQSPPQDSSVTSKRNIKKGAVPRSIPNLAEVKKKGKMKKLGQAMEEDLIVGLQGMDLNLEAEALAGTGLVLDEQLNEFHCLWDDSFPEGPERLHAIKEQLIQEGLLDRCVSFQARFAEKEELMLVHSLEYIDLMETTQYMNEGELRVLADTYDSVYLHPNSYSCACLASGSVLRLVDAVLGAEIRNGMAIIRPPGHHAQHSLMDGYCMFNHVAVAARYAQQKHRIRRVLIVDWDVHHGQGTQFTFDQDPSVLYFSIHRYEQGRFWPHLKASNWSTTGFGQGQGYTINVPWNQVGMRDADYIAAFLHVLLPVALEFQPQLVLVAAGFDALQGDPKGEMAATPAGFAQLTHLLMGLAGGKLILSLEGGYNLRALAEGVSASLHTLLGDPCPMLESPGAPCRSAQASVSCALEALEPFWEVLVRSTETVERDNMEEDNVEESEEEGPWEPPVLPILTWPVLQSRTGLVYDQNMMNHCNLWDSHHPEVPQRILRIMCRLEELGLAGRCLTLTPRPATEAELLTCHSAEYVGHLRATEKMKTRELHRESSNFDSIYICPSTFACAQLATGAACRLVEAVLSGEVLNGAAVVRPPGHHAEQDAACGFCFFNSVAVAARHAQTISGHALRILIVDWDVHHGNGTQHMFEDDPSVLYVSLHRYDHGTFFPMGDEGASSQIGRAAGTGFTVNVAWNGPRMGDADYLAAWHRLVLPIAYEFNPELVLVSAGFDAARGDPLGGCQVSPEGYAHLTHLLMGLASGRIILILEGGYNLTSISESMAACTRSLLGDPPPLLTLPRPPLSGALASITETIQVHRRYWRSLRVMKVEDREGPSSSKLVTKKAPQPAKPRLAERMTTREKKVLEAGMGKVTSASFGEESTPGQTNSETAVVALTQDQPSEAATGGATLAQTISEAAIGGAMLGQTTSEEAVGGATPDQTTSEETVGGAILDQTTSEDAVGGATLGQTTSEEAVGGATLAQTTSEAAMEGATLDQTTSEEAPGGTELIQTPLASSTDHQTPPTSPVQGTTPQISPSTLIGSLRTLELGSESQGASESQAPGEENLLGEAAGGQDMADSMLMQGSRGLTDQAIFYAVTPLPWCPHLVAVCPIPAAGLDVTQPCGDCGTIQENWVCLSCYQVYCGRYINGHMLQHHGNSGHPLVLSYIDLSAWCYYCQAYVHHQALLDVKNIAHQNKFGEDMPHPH

Full length Human HDAC8 = target: T2, Full length Human HDAC8 (Homo sapiens, UniProt Q9BY41); experiment: Caliper endpoint assay for HDAC enzymatic activity (HDAC8); format: biochemical; details: in vitro enzymatic, 30 min pre-incubation, 1 μM substrate peptide
T2 construct: Full length Human HDAC8; HIS (N); host or cells: baculovirus expression system
T2 sequence (Q9BY41 1-377): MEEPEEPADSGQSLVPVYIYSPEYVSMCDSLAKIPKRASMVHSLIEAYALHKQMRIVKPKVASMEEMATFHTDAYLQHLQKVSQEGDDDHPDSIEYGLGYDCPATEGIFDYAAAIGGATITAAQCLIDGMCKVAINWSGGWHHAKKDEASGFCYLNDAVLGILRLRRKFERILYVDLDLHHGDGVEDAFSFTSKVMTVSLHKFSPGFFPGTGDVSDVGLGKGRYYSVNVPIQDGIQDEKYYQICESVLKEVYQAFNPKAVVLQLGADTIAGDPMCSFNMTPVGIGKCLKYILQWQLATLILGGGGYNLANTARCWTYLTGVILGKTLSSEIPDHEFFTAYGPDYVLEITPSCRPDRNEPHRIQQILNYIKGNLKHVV

pIC50 (Full length Human HDAC6) | Selectivity (6 v 8) (Full length Human HDAC6) | pIC50 (Full length Human HDAC8) | Compound
7.00 to 9.00 | V (V: >1000) | 4.00 to 5.00 | O=C(NO)c1cc(F)c2c(c1)CCN(CC1CCC3(CC1)CNC3)C2 [Compound 464, 2-(2-azaspiro[3.5]nonan-7-ylmethyl)-8-fluoro-3,4-dihydro-1H-isoquinoline-6-carbohydroxamic acid]
7.00 to 9.00 | V (V: >1000) | 4.00 to 5.00 | CN1CC2(CCC(CN3CCc4cc(C(=O)NO)cc(F)c4C3)CC2)C1 [Compound 465, 8-fluoro-2-[(2-methyl-2-azaspiro[3.5]nonan-7-yl)methyl]-3,4-dihydro-1H-isoquinoline-6-carbohydroxamic acid]
7.00 to 9.00 | V (V: >1000) | 4.00 to 5.00 | O=C(NO)c1cc(F)c2c(c1)CCN(CC1CCC3(CC1)CN(C1CC1)C3)C2 [Compound 466, 2-[(2-cyclopropyl-2-azaspiro[3.5]nonan-7-yl)methyl]-8-fluoro-3,4-dihydro-1H-isoquinoline-6-carbohydroxamic acid]
7.00 to 9.00 | IV (IV: >100-1000) | 4.00 to 5.00 | CC(=O)N1CC2(CCC(CN3CCc4cc(C(=O)NO)cc(F)c4C3)CC2)C1 [Compound 467, 2-[(2-acetyl-2-azaspiro[3.5]nonan-7-yl)methyl]-8-fluoro-3,4-dihydro-1H-isoquinoline-6-carbohydroxamic acid]
7.00 to 9.00 | V (V: >1000) | 4.00 to 5.00 | O=C(NO)c1cc(F)c2c(c1)CCN(CC1CC3(CCNCC3)C1)C2 [Compound 468, 2-(7-azaspiro[3.5]nonan-2-ylmethyl)-8-fluoro-3,4-dihydro-1H-isoquinoline-6-carbohydroxamic acid]
7.00 to 9.00 | IV (IV: >100-1000) | 5.00 to 6.00 | CN1CCC2(CC1)CC(CN1CCc3cc(C(=O)NO)cc(F)c3C1)C2 [Compound 469, 8-fluoro-2-[(7-methyl-7-azaspiro[3.5]nonan-2-yl)methyl]-3,4-dihydro-1H-isoquinoline-6-carbohydroxamic acid]
7.00 to 9.00 | IV (IV: >100-1000) | 4.00 to 5.00 | O=C(NO)c1cc(F)c2c(c1)CCN(CC1CC3(CCN(C4CC4)CC3)C1)C2 [Compound 470, 2-[(7-cyclopropyl-7-azaspiro[3.5]nonan-2-yl)methyl]-8-fluoro-3,4-dihydro-1H-isoquinoline-6-carbohydroxamic acid]
7.00 to 9.00 | IV (IV: >100-1000) | 4.00 to 5.00 | CC(=O)N1CCC2(CC1)CC(CN1CCc3cc(C(=O)NO)cc(F)c3C1)C2 [Compound 471, 2-[(7-acetyl-7-azaspiro[3.5]nonan-2-yl)methyl]-8-fluoro-3,4-dihydro-1H-isoquinoline-6-carbohydroxamic acid]
7.00 to 9.00 | IV (IV: >100-1000) | 5.00 to 6.00 | O=C(NO)c1cc(F)c2c(c1)CCN(C[C@@]13CN[C@@H](CO1)C3)C2 [Compound 472, 8-fluoro-2-[[(1R,4R)-2-oxa-5-azabicyclo[2.2.1]heptan-1-yl]methyl]-3,4-dihydro-1H-isoquinoline-6-carbohydroxamic acid]
7.00 to 9.00 | IV (IV: >100-1000) | 5.00 to 6.00 | CN1C[C@@]2(CN3CCc4cc(C(=O)NO)cc(F)c4C3)C[C@@H]1CO2 [Compound 474, 8-fluoro-2-[[(1S,4R)-5-methyl-2-oxa-5-azabicyclo[2.2.1]heptan-1-yl]methyl]-3,4-dihydro-1H-isoquinoline-6-carbohydroxamic acid]
7.00 to 9.00 | IV (IV: >100-1000) | 4.00 to 5.00 | CN1C[C@]2(CN3CCc4cc(C(=O)NO)cc(F)c4C3)C[C@H]1CO2 [Compound 475, 8-fluoro-2-[[(1R,4S)-5-methyl-2-oxa-5-azabicyclo[2.2.1]heptan-1-yl]methyl]-3,4-dihydro-1H-isoquinoline-6-carbohydroxamic acid]
7.00 to 9.00 | IV (IV: >100-1000) | 4.00 to 5.00 | NC12CC(CN3CCc4cc(C(=O)NO)cc(F)c4C3)(C1)C2 [Compound 486, 2-[(3-amino-1-bicyclo[1.1.1]pentanyl)methyl]-8-fluoro-3,4-dihydro-1H-isoquinoline-6-carbohydroxamic acid]
7.00 to 9.00 | IV (IV: >100-1000) | 5.00 to 6.00 | CNC12CC(CN3CCc4cc(C(=O)NO)cc(F)c4C3)(C1)C2 [Compound 487, 8-fluoro-2-[[3-(methylamino)-1-bicyclo[1.1.1]pentanyl]methyl]-3,4-dihydro-1H-isoquinoline-6-carbohydroxamic acid]
7.00 to 9.00 | IV (IV: >100-1000) | 5.00 to 6.00 | CN1CC2(CN3CCc4cc(C(=O)NO)cc(F)c4C3)CC1C2 [Compound 490, 8-fluoro-2-[(2-methyl-2-azabicyclo[2.1.1]hexan-4-yl)methyl]-3,4-dihydro-1H-isoquinoline-6-carbohydroxamic acid]
7.00 to 9.00 | IV (IV: >100-1000) | 4.00 to 5.00 | O=C(NO)c1cc(F)c2c(c1)CCN(CC13CC(C1)N(C1CC1)C3)C2 [Compound 491, 2-[(2-cyclopropyl-2-azabicyclo[2.1.1]hexan-4-yl)methyl]-8-fluoro-3,4-dihydro-1H-isoquinoline-6-carbohydroxamic acid]
7.00 to 9.00 | IV (IV: >100-1000) | 4.00 to 5.00 | O=C(NO)c1cc(F)c2c(c1)CCN(CC1C3CNCC1C3)C2 (stereo not drawn) [Compound 493]
6.00 to 7.00 | IV (IV: >100-1000) | 4.00 to 5.00 | [2H]c1cc2c(cc1C(=O)NO)CCN(C1CC3(CCCCC3)C1)C2 [Compound 504, N-hydroxy-2-(spiro[3.5]nonan-2-yl)-1,2,3,4-tetrahydroisoquinoline-7-d-6-carboxamide]
7.00 to 9.00 | IV (IV: >100-1000) | 4.00 to 5.00 | [2H]c1c(C(=O)NO)ccc2c1CCN(C1CC3(CCCCC3)C1)C2 [Compound 505, N-hydroxy-2-(spiro[3.5]nonan-2-yl)-1,2,3,4-tetrahydroisoquinoline-5-d-6-carboxamide]

Compound | pIC50 (Full length Human HDAC6) | Selectivity (6 v 8) (Full length Human HDAC6) | pIC50 (Full length Human HDAC8)
CN1CC2CC(C1)C2CN1CCc2cc(C(=O)NO)cc(F)c2C1 (stereo not drawn) [Compound 463, 8-fluoro-2-[(3-methyl-3-azabicyclo[3.1.1]heptan-6-yl)methyl]-3,4-dihydro-1H-isoquinoline-6-carbohydroxamic acid] | 7.00 to 9.00 | IV (IV: >100-1000) | 4.00 to 5.00
O=C(NO)c1cc(F)c2c(c1)CCN(CC1CC3CCC(C1)N3C1CC1)C2 (stereo not drawn) [Compound 484, 2-[(8-cyclopropyl-8-azabicyclo[3.2.1]octan-3-yl)methyl]-8-fluoro-3,4-dihydro-1H-isoquinoline-6-carbohydroxamic acid] | 7.00 to 9.00 | IV (IV: >100-1000) | 5.00 to 6.00
O=C(NO)c1cc(F)c2c(c1)CCN(CC1C3CC1CN(C1CC1)C3)C2 (stereo not drawn) [Compound 494, 2-[(3-cyclopropyl-3-azabicyclo[3.1.1]heptan-6-yl)methyl]-8-fluoro-3,4-dihydro-1H-isoquinoline-6-carbohydroxamic acid] | 7.00 to 9.00 | III (III: >10-100) | 5.00 to 6.00
